Source: article PMC6934184, “Selective DNA-PKcs inhibition extends the therapeutic index of localized radiotherapy and chemotherapy” (The Journal of Clinical Investigation, 2019)

Target: T1, MAPK1 (ERK2) (Homo sapiens, UniProt P28482)
T1 construct: purchased Thermo Fisher Scientific (Life Technologies) SelectScreen
Assay: SelectScreen Z'LYTE
Format: biochemical
In short: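 NU5455 was profiled across the SelectScreen Broad panel of kinase activity and binding assays. Z'LYTE reactions such as CSF1R ran at apparent Km ATP, while the Adapta CAMK1 assay used ATP listed as 10. Values are given as percent.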

T1 sequence (P28482 whole entry): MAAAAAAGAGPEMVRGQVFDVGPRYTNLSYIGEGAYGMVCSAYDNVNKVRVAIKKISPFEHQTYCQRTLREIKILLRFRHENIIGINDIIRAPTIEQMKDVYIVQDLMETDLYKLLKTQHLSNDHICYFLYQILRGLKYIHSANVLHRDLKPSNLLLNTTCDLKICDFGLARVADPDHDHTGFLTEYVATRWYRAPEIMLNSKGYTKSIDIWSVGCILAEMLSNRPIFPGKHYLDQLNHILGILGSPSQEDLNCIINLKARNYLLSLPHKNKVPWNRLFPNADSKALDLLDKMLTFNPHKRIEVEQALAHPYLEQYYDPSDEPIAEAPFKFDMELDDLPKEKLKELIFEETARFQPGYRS

Compound `CN(C(=O)CN1CCOCC1)c1ccc2sc3c(-c4cccc5c(=O)cc(N6CC7CCC(C6)O7)oc45)cccc3c2c1` [NU5455] has an inhibition at 1 µM of 10.1%.
